# Data: patent publication US8236792B2, “Substituted pyrrolidine amides as modulators of the histamine H3 receptor” (Janssen Pharmaceutica NV, priority 2008, dated 2012)
# Molecular target: human H3 receptor (Homo sapiens, UniProt Q9Y5N1)
# Experiment: H3 Receptor Binding (Human) Method 2, [125I]-iodoproxyfan competitive radioligand binding
# Parameters: expressed in transfected cells
# Conditions: not given
# Sequence of human H3 receptor (Q9Y5N1 whole entry): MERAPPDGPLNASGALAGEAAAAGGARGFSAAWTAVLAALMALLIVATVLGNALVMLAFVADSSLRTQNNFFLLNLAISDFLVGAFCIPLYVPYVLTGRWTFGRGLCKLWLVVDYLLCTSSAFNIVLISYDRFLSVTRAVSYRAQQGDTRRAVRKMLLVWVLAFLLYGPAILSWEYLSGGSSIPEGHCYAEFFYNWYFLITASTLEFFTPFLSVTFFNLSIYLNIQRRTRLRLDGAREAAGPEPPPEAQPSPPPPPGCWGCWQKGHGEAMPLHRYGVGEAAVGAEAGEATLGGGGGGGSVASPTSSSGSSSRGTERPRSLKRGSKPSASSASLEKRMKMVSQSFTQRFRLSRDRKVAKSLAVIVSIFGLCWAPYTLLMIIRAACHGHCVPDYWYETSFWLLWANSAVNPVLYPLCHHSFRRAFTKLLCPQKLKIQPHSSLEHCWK
row,Ki [µM],SMILES
1,0.021,"CC(=O)N1C[C@@H](Oc2cccc(F)c2)C[C@H]1C(=O)N1CCCN(C2CCC2)CC1 [Example 115, (2S,4S)-1-[2-(4-Cyclobutyl-[1,4]diazepane-1-carbonyl)-4-(3-fluoro-phenoxy)-pyrrolidin-1-yl]-ethanone]"
2,0.569,CC(=O)N1C[C@H](Oc2cccc(F)c2)C[C@@H]1C(=O)N1CCCN(C2CCC2)CC1 [Example 130]

# Same assay, conditions: Method 2; SK-N-MC cell membranes; [125I]-iodoproxyfan 1 nM; apparent Ki; free base or hydrochloride salt; average of results; read-out: Human H3 Ki
row,SMILES,Ki [µM]
1,"CCOC(=O)N1C[C@@H](Oc2cccc(F)c2)C[C@@H]1C(=O)N1CCCN(C2CCC2)CC1 [Example 127, (2R,4S)-2-(4-Cyclobutyl-[1,4]diazepane-1-carbonyl)-4-(3-fluoro-phenoxy) pyrrolidine-1-carboxylic acid ethyl ester]",0.016
2,"O=C([C@H]1C[C@H](Oc2ccc(F)cc2)CN1C1CC1)N1CCCN(C2CCC2)CC1 [Example 142, (2R,4S)-1-Cyclopropyl-2-(4-cyclobutyl-[1,4]diazepane-1-carbonyl)-4-(4-fluoro-phenoxy)-pyrrolidine]",0.013

# Same assay, conditions: read-out: Human H3 Ki
row,Ki [µM],SMILES
1,0.003,"Cc1ccccc1O[C@@H]1CN[C@@H](C(=O)N2CCCN(C3CCC3)CC2)C1 [Example 77, (2R,4S)-4-(4-o-Tolyloxy)-2-(4-cyclobutyl-[1,4]diazepane-1-carbonyl)-pyrrolidine]"
2,1.11,"CC(C)(C)OC(=O)N1C[C@H](O)C[C@@H]1C(=O)N1CCN(C2CCCC2)CC1 [Example 6, (2R,4R)-2-(4-Cyclopentyl-piperazine-1-carbonyl)-4-hydroxy-pyrrolidine-1-carboxylic acid tert-butyl Ester]"
3,0.027,"O=C(N1CCCN(C2CCC2)CC1)[C@@]1(Cc2ccc(F)cc2)CCCN1 [Example 169, (2S)-(4-Cyclobutyl-[1,4]diazepan-1-yl)-[2-(4-fluoro-benzyl)-pyrrolidin-2-yl]-methanone]"
4,0.012,"N#Cc1ccc(O[C@@H]2CN[C@@H](C(=O)N3CCCN(C4CC4)CC3)C2)cc1 [Example 79, (2R,4S)-4-(4-Cyano-phenoxy)-2-(4-cyclopropyl-[1,4]diazepane-1-carbonyl)-pyrrolidine]"
5,0.007,"O=C([C@H]1C[C@H](Oc2ccc(F)cc2)CN1CC1CC1)N1CCCN(C2CCC2)CC1 [Example 113, (2R,4S)-1-Cyclopropylmethyl-2-(4-cyclobutyl-[1,4]diazepane-1-carbonyl)-4-(4-fluoro-phenoxy)-pyrrolidine]"
6,0.115,"CC(=O)N1C[C@@H](O)C[C@@H]1C(=O)N1CCCN(C2CCC2)CC1 [Example 10, (2R,4S)-1-[2-(4-Cyclobutyl-[1,4]diazepane-1-carbonyl)-4-hydroxy-pyrrolidin-1-yl]-ethanone]"
7,0.049,"CC(C)(C)OC(=O)N1C[C@H](Oc2ccc(F)cc2)C[C@@H]1C(=O)N1CCCN(C2CCC2)CC1 [Example 56, (2R,4R)-2-(4-Cyclobutyl-[1,4]diazepane-1-carbonyl)-4-(4-fluoro-phenoxy)-pyrrolidine-1-carboxylic acid tert-butyl ester]"
8,1.27,"CC(C)(C)OC(=O)N1CC[C@H](O)[C@H]1C(=O)N1CCCN(C2CCC2)CC1 [Example 3, (2S,3S)-2-(4-Cyclobutyl-[1,4]diazepane-1-carbonyl)-3-hydroxy-pyrrolidine-1-carboxylic acid tert-butyl Ester]"
9,0.005,"Cc1ccc(O[C@@H]2CN[C@@H](C(=O)N3CCCN(C4CCC4)CC3)C2)cc1 [Example 76, (2R,4S)-4-(4-p-Tolyloxy)-2-(4-cyclobutyl-[1,4]diazepane-1-carbonyl)-pyrrolidine]"
10,0.008,"Cc1ccccc1O[C@H]1C[C@H](C(=O)N2CCCN(C3CCC3)CC2)N(C(=O)OC(C)(C)C)C1 [Example 30, (2R,4S)-2-(4-Cyclobutyl-[1,4]diazepane-1-carbonyl)-4-o-tolyloxy-pyrrolidine-1-carboxylic acid tert-butyl ester]"
11,0.002,"CC(C)(C)OC(=O)N1C[C@@H](Oc2ccc(F)cc2)C[C@@H]1C(=O)N1CCCN(C2CCCC2)CC1 [Example 35, (2R,4S)-2-(4-Cyclopentyl-[1,4]diazepane-1-carbonyl)-4-(4-fluoro-phenoxy)-pyrrolidine-1-carboxylic acid tert-butyl ester]"
12,1.16,"CC(=O)N1C[C@@H](Oc2cccc(F)c2)C[C@@H]1C(=O)N1CCCNCC1 [Example 156, (2R,4S)-4-[1-Acetyl-4-(3-fluoro-Phenoxy)-pyrrolidine-2-carbonyl]-[1,4]diazepane]"
13,0.053,"CC(C)(C)OC(=O)N1CCC[C@]1(Cc1cccc(F)c1)C(=O)N1CCCN(C2CCC2)CC1 [Example 164, (2S)-2-(4-Cyclobutyl-[1,4]diazepane-1-carbonyl)-2-(3-fluoro-benzyl)-pyrrolidine-1-carboxylic acid tert-butyl ester]"
14,0.003,"O=C([C@H]1C[C@H](Oc2cccnc2)CN1)N1CCCN(C2CCC2)CC1 [Example 101, (2R,4S)-2-(4-Cyclobutyl-[1,4]diazepane-1-carbonyl)-4-(Pyridin-3-yloxy)-pyrrolidine]"
15,0.348,"O=C([C@@H]1C[C@@H](Cc2cccc(F)c2)CN1)N1CCCN(C2CCC2)CC1 [Example 179, (2S,4R)-(4-Cyclobutyl-[1,4]diazepan-1-yl)-[4-(3-fluoro-benzyl)-pyrrolidin-2-yl]-methanone]"
16,0.093,"CC(C)(C)OC(=O)N1C[C@H](Oc2ccc(Cl)cc2)C[C@@H]1C(=O)N1CCCN(C2CCC2)CC1 [Example 57, (2R,4R)-4-(4-Chloro-phenoxy)-2-(4-cyclobutyl-[1,4]diazepane-1-carbonyl)-pyrrolidine-1-carboxylic acid tert-butyl ester]"

row,Ki [µM],SMILES
1,1.25,"CC(C)(C)OC(=O)N1C[C@H](O)C[C@@H]1C(=O)N1CCCN(C2CC2)CC1 [Example 5, (2R,4R)-2-(4-Cyclopropyl-[1,4]diazepane-1-carbonyl)-4-hydroxy-pyrrolidine-1-carboxylic acid tert-butyl Ester]"
2,0.006,"CC(C)(C)OC(=O)N1C[C@H](Oc2cccc(F)c2)C[C@H]1C(=O)N1CCCN(C2CCC2)CC1 [Example 49, (2S,4R)-2-(4-Cyclobutyl-[1,4]diazepane-1-carbonyl)-4-(3-fluoro-phenoxy)-pyrrolidine-1-carboxylic acid tert-butyl ester]"
3,0.008,"CC(C)(C)OC(=O)N1C[C@@H](OCc2cccc(F)c2)C[C@@H]1C(=O)N1CCCN(C2CCC2)CC1 [Example 147, (2R,4S)-2-(4-Cyclobutyl-[1,4]diazepane-1-carbonyl)-4-(3-fluoro-benzyloxy)-pyrrolidine-1-carboxylic acid tert-butyl ester]"
4,0.257,"CC(C)(C)OC(=O)N1CCC[C@]1(Cc1ccc(F)cc1)C(=O)N1CCCN(C2CCC2)CC1 [Example 165, (2S)-2-(4-Cyclobutyl-[1,4]diazepane-1-carbonyl)-2-(4-fluoro-benzyl)-pyrrolidine-1-carboxylic acid tert-butyl ester]"
5,0.02,"O=C([C@H]1C[C@H](Oc2ccc(F)cc2)CN1)N1CCCN(C2CC2)CC1 [Example 78, (2R,4S)-2-(4-Cyclopropyl-[1,4]diazepane-1-carbonyl)-4-(4-fluoro-phenoxy)-pyrrolidine]"
6,0.051,"CC(C)(C)OC(=O)N1CCC[C@]1(Cc1ccccc1)C(=O)N1CCCN(C2CCC2)CC1 [Example 167, (2S)-2-Benzyl-2-(4-cyclobutyl-[1,4]diazepane-1-carbonyl)-pyrrolidine-1-carboxylic acid tert-butyl ester]"
7,0.013,"CC(C)(C)OC(=O)N1C[C@@H](OCc2ccc(C#N)cc2)C[C@@H]1C(=O)N1CCCN(C2CCC2)CC1 [Example 149, (2R,4S)-4-(4-Cyano-benzyloxy)-2-(4-cyclobutyl-[1,4]diazepane-1-carbonyl)-pyrrolidine-1-carboxylic acid tert-butyl ester]"
8,0.003,"CC(=O)N1C[C@@H](Oc2cccs2)C[C@@H]1C(=O)N1CCCN(C2CCC2)CC1 [Example 135, (2R,4S)-1-[2-(4-Cyclobutyl-[1,4]diazepane-1-carbonyl)-4-(thiophen-2-yloxy)-pyrrolidin-1-yl]-ethanone]"
9,0.024,"CC(C)(C)OC(=O)N1C[C@@H](Oc2ccc(F)cc2)C[C@@H]1C(=O)N1CCN(C2CCCC2)CC1 [Example 33, (2R,4S)-2-(4-Cyclopentyl-piperazine-1-carbonyl)-4-(4-fluoro-phenoxy)-pyrrolidine-1-carboxylic acid tert-butyl ester]"
10,0.014,"CC(C)(C)OC(=O)N1C[C@@H](Oc2ccc(C#N)cc2)C[C@@H]1C(=O)N1CCN(C2CCCC2)CC1 [Example 34, (2R,4S)-4-(4-Cyano-phenoxy)-2-(4-cyclopentyl-piperazine-1-carbonyl)-pyrrolidine-1-carboxylic acid tert-butyl ester]"
11,1.47,"CSc1ccc(O[C@@H]2CCN(C(=O)OC(C)(C)C)[C@@H]2C(=O)N2CCCN(C3CCC3)CC2)cc1 [Example 146, (2S,3R)-2-(4-Cyclobutyl-[1,4]diazepane-1-carbonyl)-3-(4-methylsulfanyl-phenoxy)-pyrrolidine-1-carboxylic acid tert-butyl ester]"
12,0.015,"CC(C)(C)OC(=O)N1C[C@@H](Oc2ccc(F)cc2)C[C@@H]1C(=O)N1CCCN(C2CC2)CC1 [Example 31, (2R,4S)-2-(4-Cyclopropyl-[1,4]diazepane-1-carbonyl)-4-(4-fluoro-phenoxy)-pyrrolidine-1-carboxylic acid tert-butyl ester]"
13,0.002,"CC(C)(C)OC(=O)N1C[C@@H](Oc2cccnc2)C[C@@H]1C(=O)N1CCCN(C2CCC2)CC1 [Example 53, (2R,4S)-2-(4-Cyclobutyl-[1,4]diazepane-1-carbonyl)-4-(pyridin-3-yloxy)-pyrrolidine-1-carboxylic acid tert-butyl ester]"
14,0.023,"N#Cc1ccc(O[C@@H]2CN[C@@H](C(=O)N3CCN(C4CCCC4)CC3)C2)cc1 [Example 81, (2R,4S)-4-(4-Cyano-phenoxy)-2-(4-cyclopentyl-piperazine-1-carbonyl)-pyrrolidine]"
15,0.004,"Cc1cc(O[C@H]2C[C@H](C(=O)N3CCCN(C4CCC4)CC3)N(C(=O)OC(C)(C)C)C2)ccc1Cl [Example 24, (2R,4S)-4-(4-Chloro-3-methyl-phenoxy)-2-(4-cyclobutyl-[1,4]diazepane-1-carbonyl)-pyrrolidine-1-carboxylic acid tert-butyl ester]"
